This note sets out measurements from ChEMBL document CHEMBL2203018, “Tyrosine urea muscarinic acetylcholine receptor antagonists: achiral quaternary ammonium groups” (Bioorg Med Chem Lett, 2012).

Structures are written as SMILES.

Experiment [1] concerns Mus musculus. The experiment in a line: Inhibition of methacholine-induced bronchoconstriction in Balb/c mouse at 5 ug administered intranasally after 24 hrs. The format is functional.
Experiment [2] deals with Mus musculus. The experiment in a line: Inhibition of methacholine-induced bronchoconstriction in Balb/c mouse at 5 ug administered intranasally after 5 hrs. The format is functional.
The subject of experiment [3] is Mus musculus. The experiment in a line: Inhibition of methacholine-induced bronchoconstriction in Balb/c mouse at 5 ug administered intranasally after 48 hrs. Format: functional.
Experiment [4] has as its target Muscarinic acetylcholine receptor M3 (Homo sapiens, UniProt P20309). The experiment in a line: Antagonist activity at human muscarinic M3 receptor expressed in CHO cells assessed as inhibition of acetylcholine-induced calcium mobilization by FLIPR assay. Format: functional, cell-based.
The target in experiment [5] is T1, Muscarinic acetylcholine receptor M2 (Homo sapiens, UniProt P08172).
T1 sequence (P08172 whole entry): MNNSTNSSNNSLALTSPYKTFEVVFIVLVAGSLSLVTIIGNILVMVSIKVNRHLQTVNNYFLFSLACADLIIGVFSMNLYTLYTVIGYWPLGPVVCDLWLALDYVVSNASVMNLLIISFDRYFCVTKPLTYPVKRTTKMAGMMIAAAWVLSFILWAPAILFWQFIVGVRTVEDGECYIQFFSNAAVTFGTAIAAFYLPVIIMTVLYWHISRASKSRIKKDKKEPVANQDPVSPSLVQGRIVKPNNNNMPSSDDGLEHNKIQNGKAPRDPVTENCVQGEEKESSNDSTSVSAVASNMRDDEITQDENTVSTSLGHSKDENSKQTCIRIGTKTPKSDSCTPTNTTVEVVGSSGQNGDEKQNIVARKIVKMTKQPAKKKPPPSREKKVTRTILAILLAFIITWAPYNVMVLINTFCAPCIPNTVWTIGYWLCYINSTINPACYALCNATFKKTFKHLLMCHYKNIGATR
The experiment in a line: Antagonist activity at human muscarinic M2 receptor expressed in CHO cells assessed as inhibition of acetylcholine-induced calcium mobilization by FLIPR assay. Format: functional, cell-based. (Calcium assays in cells follow changes in intracellular calcium, usually with a dye or a luminescent sensor.)

Experiment [6] concerns the target T2, Muscarinic acetylcholine receptor M1 (Homo sapiens, UniProt P11229).
T2 sequence (P11229 whole entry): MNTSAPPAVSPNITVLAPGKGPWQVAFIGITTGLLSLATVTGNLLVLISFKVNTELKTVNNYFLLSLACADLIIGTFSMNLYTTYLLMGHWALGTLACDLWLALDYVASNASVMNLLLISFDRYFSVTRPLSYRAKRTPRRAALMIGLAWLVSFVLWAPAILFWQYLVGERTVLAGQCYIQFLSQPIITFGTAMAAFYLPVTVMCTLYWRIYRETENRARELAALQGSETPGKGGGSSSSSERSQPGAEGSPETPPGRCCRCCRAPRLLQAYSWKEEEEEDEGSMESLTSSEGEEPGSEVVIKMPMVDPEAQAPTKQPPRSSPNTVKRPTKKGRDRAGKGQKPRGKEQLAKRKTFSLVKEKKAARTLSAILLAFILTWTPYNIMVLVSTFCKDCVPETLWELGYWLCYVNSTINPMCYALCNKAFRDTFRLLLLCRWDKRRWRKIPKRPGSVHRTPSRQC
The experiment in a line: Antagonist activity at human muscarinic M1 receptor expressed in CHO cells assessed as inhibition of acetylcholine-induced calcium mobilization by FLIPR assay. Format: functional, cell-based.

Chain of Muscarinic acetylcholine receptor M3 (P20309 whole entry): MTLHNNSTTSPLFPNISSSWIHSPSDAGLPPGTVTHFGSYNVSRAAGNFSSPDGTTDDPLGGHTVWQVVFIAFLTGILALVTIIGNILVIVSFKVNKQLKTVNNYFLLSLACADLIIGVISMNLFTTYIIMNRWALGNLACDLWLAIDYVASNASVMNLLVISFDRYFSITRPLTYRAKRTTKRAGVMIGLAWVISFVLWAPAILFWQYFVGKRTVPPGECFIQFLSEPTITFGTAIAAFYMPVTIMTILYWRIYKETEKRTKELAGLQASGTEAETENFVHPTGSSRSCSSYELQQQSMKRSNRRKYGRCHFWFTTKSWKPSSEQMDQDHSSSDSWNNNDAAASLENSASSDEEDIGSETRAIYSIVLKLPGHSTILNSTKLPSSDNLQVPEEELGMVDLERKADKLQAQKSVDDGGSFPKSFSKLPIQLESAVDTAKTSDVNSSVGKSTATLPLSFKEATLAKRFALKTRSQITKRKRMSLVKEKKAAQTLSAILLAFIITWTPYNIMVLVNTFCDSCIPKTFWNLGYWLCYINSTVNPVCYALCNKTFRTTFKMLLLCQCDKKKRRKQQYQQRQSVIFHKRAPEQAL

Take `CC(C)OC(=O)c1ccc(NC(=O)N[C@@H](Cc2ccc(O)cc2)C(=O)N[C@H]2CCC[N+](C)(Cc3ccc(Cl)cc3)C2)cc1` (some centres undefined): the entries for the “inhibition (INH)” value in experiment [1], in experiment [2] and in experiment [3] were 38%, 94% and 0%, respectively.
Regarding `Cc1c[n+]2cc(CNC(=O)[C@H](Cc3ccc(O)cc3)NC(=O)Nc3ccc(C(=O)OC(C)C)cc3)n(Cc3ccc(C(F)(F)F)cc3)c2s1.O=C([O-])C(F)(F)F`, the “inhibition (INH)” value is recorded as 12% in experiment [1] and 89% in experiment [2].
One may read the IC50 as the concentration that gives 50% inhibition. Take `CC(C)OC(=O)c1ccc(NC(=O)N[C@@H](Cc2ccc(O)cc2)C(=O)NCCC[N+](C)(C)Cc2ccc(Cl)cc2)cc1`: the IC50 in experiment [4] was 0.197 µM; in experiment [5], 0.178 µM; in experiment [6], 0.757 µM.
On the same counts, the results for `CC(C)OC(=O)c1ccc(NC(=O)N[C@@H](Cc2ccc(O)cc2)C(=O)NCC(C)(C)C[N+](C)(C)Cc2ccc(Cl)cc2)cc1` are below 0.005 µM, 0.0876 µM and 0.476 µM.
On the same counts, the results for `CC(C)OC(=O)c1ccc(NC(=O)N[C@@H](Cc2ccc(O)cc2)C(=O)N2CC[N+](C)(Cc3ccc4c(c3)OCO4)CC2)cc1` are 0.0102 µM, 0.427 µM and above 3.3 µM.
With `CC(C)OC(=O)c1ccc(NC(=O)N[C@@H](Cc2ccc(O)cc2)C(=O)N2CC[N+](C)(CC3CCCCC3)CC2)cc1`, the 50% inhibitory concentration (IC50) in experiment [4] was 0.0502 µM; in experiment [5], 0.191 µM; in experiment [6], 2.5 µM.
On to `CC(C)OC(=O)c1ccc(NC(=O)N[C@@H](Cc2ccc(O)cc2)C(=O)N2CC[N+](Cc3ccc(Cl)cc3)(C(C)C)CC2)cc1`, for which the results for the IC50 in experiment [4], in experiment [5] and in experiment [6] were 0.0275 µM, 0.0979 µM and 0.893 µM, respectively.
With `CC(C)OC(=O)c1ccc(NC(=O)N[C@@H](Cc2ccc(O)cc2)C(=O)N2CC[N+](Cc3ccc(Cl)cc3)(CC3CCCCC3)CC2)cc1`, the IC50 in experiment [4] was below 0.005 µM; in experiment [5], 0.0588 µM; in experiment [6], 0.141 µM.
The like results for `CC(C)OC(=O)c1ccc(NC(=O)N[C@@H](Cc2ccc(O)cc2)C(=O)N2CC[N+](Cc3ccc(Cl)cc3)(CC3CCc4ccccc4C3)CC2)cc1` (some centres undefined) were, in that order, below 0.005 µM, 0.0412 µM and 0.462 µM.
Consider `CC(C)OC(=O)c1ccc(NC(=O)N[C@@H](Cc2ccc(O)cc2)C(=O)N2CC[N+](C)(CCc3ccccc3)CC2)cc1`, for which the IC50 in experiment [4] is below 0.005 µM; in experiment [5], 0.86 µM; in experiment [6], 1.35 µM.
On the same counts, the results for `CC(C)OC(=O)c1ccc(NC(=O)N[C@@H](Cc2ccc(O)cc2)C(=O)N(C)Cc2n(C)cc[n+]2C)cc1` are above 3.3 µM, above 3.3 µM and above 3.3 µM.
Consider `CC(C)OC(=O)c1ccc(NC(=O)N[C@@H](Cc2ccc(O)cc2)C(=O)N(C)Cc2n(C)cc[n+]2Cc2ccc(Cl)cc2)cc1`, for which the 50% inhibitory concentration (IC50) in experiment [4] was 0.392 µM; in experiment [5], 0.999 µM; in experiment [6], above 3.3 µM.
On to `CC(C)OC(=O)c1ccc(NC(=O)N[C@@H](Cc2ccc(O)cc2)C(=O)NCc2n(Cc3ccc(Cl)cc3)cc[n+]2Cc2ccc(Cl)cc2)cc1`, for which the figures for the IC50 in experiment [4], in experiment [5] and in experiment [6] were 0.0519 µM, 0.181 µM and 0.327 µM, respectively.
With `Cc1csc2n(C)c(CNC(=O)[C@H](Cc3ccc(O)cc3)NC(=O)Nc3ccc(C(=O)OC(C)C)cc3)c[n+]12`, the IC50 in experiment [4], in experiment [5] and in experiment [6] was below 0.005 µM each time.
On to `Cc1csc2n(Cc3ccc(Cl)cc3)c(CNC(=O)[C@H](Cc3ccc(O)cc3)NC(=O)Nc3ccc(C(=O)OC(C)C)cc3)c[n+]12`, for which the 50% inhibitory concentration (IC50) in experiment [4], in experiment [5] and in experiment [6] was below 0.005 µM each time.
As to `Cc1c[n+]2cc(CNC(=O)[C@H](Cc3ccc(O)cc3)NC(=O)Nc3ccc(C(=O)OC(C)C)cc3)n(C)c2s1`, the half-inhibitory concentration (IC50) in experiment [4], in experiment [5] and in experiment [6] was below 0.005 µM throughout.
`CC(C)OC(=O)c1ccc(NC(=O)N[C@@H](Cc2ccc(O)cc2)C(=O)N2CCC[C@H]([N+](C)(C)Cc3ccc(Cl)cc3)C2)cc1`: the results for the half-maximal inhibitory concentration (IC50) in experiment [4], in experiment [5] and in experiment [6] were 0.0453 µM, 0.105 µM and 1.12 µM, respectively.
On the same counts, the results for `CC(C)OC(=O)c1ccc(NC(=O)N[C@@H](Cc2ccc(O)cc2)C(=O)N2CCC([N+]3(Cc4ccc(Cl)cc4)CCCC3)CC2)cc1` are 0.0689 µM, 0.0946 µM and 0.882 µM.
As for `CC[N+]1(C2CCN(C(=O)[C@H](Cc3ccc(O)cc3)NC(=O)Nc3ccc(C(=O)OC(C)C)cc3)CC2)CCCC1`, the IC50 was 0.579 µM in experiment [4], 0.556 µM in experiment [5] and above 3.3 µM in experiment [6].
Take `CC(C)OC(=O)c1ccc(NC(=O)N[C@@H](Cc2ccc(O)cc2)C(=O)NCC[N+](C)(Cc2ccc(Cl)cc2)Cc2ccc(Cl)cc2)cc1`: the IC50 in experiment [4] amounted to 0.0704 µM; in experiment [5] it was 0.405 µM; in experiment [6] it was 0.379 µM.
As for `CC(C)OC(=O)c1ccc(NC(=O)N[C@@H](Cc2ccc(O)cc2)C(=O)NCC[N+](C)(C)Cc2ccc(Cl)cc2)cc1`, the figures for the IC50 in experiment [4], in experiment [5] and in experiment [6] were 0.143 µM, 0.549 µM and 1.43 µM, respectively.
With `CC[N+](CC)(CCNC(=O)[C@H](Cc1ccc(O)cc1)NC(=O)Nc1ccc(C(=O)OC(C)C)cc1)Cc1ccc(Cl)cc1`, the results for the IC50 in experiment [4], in experiment [5] and in experiment [6] were 0.223 µM, 0.311 µM and 0.584 µM, respectively.
`CC(C)OC(=O)c1ccc(NC(=O)N[C@@H](Cc2ccc(O)cc2)C(=O)NCC[N+](C)(Cc2ccc3ccccc3c2)Cc2ccc3ccccc3c2)cc1`: the IC50 came to 0.0822 µM in experiment [4], 0.015 µM in experiment [5] and 0.948 µM in experiment [6].
On the same counts, the results for `CC(C)OC(=O)c1ccc(NC(=O)N[C@@H](Cc2ccc(O)cc2)C(=O)NCC[N+](C)(C)C23CC4CC(CC(C4)C2)C3)cc1` are 0.0061 µM, 0.0131 µM and 0.0131 µM.
The like results for `CC(C)OC(=O)c1ccc(NC(=O)N[C@@H](Cc2ccc(O)cc2)C(=O)NCC[N+]2(Cc3ccc(Cl)cc3)CCCC2)cc1` were, in that order, 0.0449 µM, 0.108 µM and 0.418 µM.
Consider `CC(C)OC(=O)c1ccc(NC(=O)N[C@@H](Cc2ccc(O)cc2)C(=O)NCC[N+]2(Cc3ccc(Cl)cc3)CCCCC2)cc1`, for which the IC50 was found to be 0.0334 µM in experiment [4], 0.0825 µM in experiment [5] and 0.199 µM in experiment [6].
The like results for `CC(C)OC(=O)c1ccc(NC(=O)N[C@@H](Cc2ccc(O)cc2)C(=O)NCC[N+]2(C)CCCCCC2)cc1` were, in that order, 0.159 µM, 0.328 µM and above 3.3 µM.
The like results for `CC(C)OC(=O)c1ccc(NC(=O)N[C@@H](Cc2ccc(O)cc2)C(=O)NCC[N+](C)(C(C)C)C(C)C)cc1` were, in that order, 0.237 µM, 0.337 µM and above 3.3 µM.
In the case of `CC(C)OC(=O)c1ccc(NC(=O)N[C@@H](Cc2ccc(O)cc2)C(=O)N(CC[N+](C)(C)C)Cc2ccccc2)cc1`, the half-inhibitory concentration (IC50) in experiment [4], in experiment [5] and in experiment [6] was above 3.3 µM throughout.
As to `CC(C)OC(=O)c1ccc(NC(=O)N[C@@H](Cc2ccc(O)cc2)C(=O)NCCC[N+](C)(C)Cc2ccc3ccccc3c2)cc1`, the concentration for half-maximal inhibition (IC50) in experiment [4] was determined as 0.417 µM; in experiment [5] it was 0.411 µM; in experiment [6] it was 0.734 µM.
The like results for `CC(C)OC(=O)c1ccc(NC(=O)N[C@@H](Cc2ccc(O)cc2)C(=O)N2CCC[C@@H]([N+](C)(C)Cc3ccc(Cl)cc3)C2)cc1` were, in that order, 0.0133 µM, 0.832 µM and 1.9 µM.
Consider `Cc1cn2cc(CNC(=O)[C@H](Cc3ccc(O)cc3)NC(=O)Nc3ccc(C(=O)OC(C)C)cc3)[n+](Cc3ccc4ccccc4c3)c2s1.O=C([O-])C(F)(F)F`, for which the “inhibition (INH)” value in experiment [2] is 78%; in experiment [3], 69%.
